Measurements published in US9040527B2, “Pyrimidinediamine kinase inhibitors” (Rigel Pharmaceuticals, Inc., priority 2008, dated 2015).

Experiments:
PLK1 [1] = molecular target: T1, PLK1 (Homo sapiens, UniProt P53350); assay: Cellular PLK1 assay in K562 cells overexpressing CDC25C; assay type: cell-based; design: endogenous in cells; host or cells: K562 (human chronic myelogenous leukemia) overexpressing CDC25C, nocodazole-arrested; conditions: nocodazole arrested, cdc25c p-Ser198 readout
In short: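 K562 cells overexpressing CDC25C were arrested with 333 nM nocodazole for 18 h at 37 °C, then exposed to compound at 8 points from 10 μM to 0.005 μM in duplicate for 120 min. After fixation and permeabilization, cells were stained for cdc25c pSer198 with a PE secondary and read by flow cytometry, 10,000 cells per well.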

PLK1 [2] = molecular target: T1, PLK1; assay: In vitro PLK1 ELISA assay (biochemical); design: purchased Cell Signalling 7728
In short: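 Commercial PLK1 phosphorylates neutravidin-captured biotinylated CHK2 peptide for 45 min at room temperature in HEPES pH 7.2 with Mg2+/Mn2+/DTT, compounds at 10 μM to 0.005 μM. Phospho-CHK2(T68) antibody plus HRP secondary gives chemiluminescent read-out used for IC50.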

[3] = ELISA, CHK2-derived peptide substrate, read-out: PLK1 IC50 (μM) biochemical assay
[4] = read-out: IC50 in biochemical in vitro PLK1 ELISA assay (less than 10 μM)
[5] = read-out: IC50 in biochemical ELISA assay (less than 0.01 μM)

T1 sequence (P53350 whole entry): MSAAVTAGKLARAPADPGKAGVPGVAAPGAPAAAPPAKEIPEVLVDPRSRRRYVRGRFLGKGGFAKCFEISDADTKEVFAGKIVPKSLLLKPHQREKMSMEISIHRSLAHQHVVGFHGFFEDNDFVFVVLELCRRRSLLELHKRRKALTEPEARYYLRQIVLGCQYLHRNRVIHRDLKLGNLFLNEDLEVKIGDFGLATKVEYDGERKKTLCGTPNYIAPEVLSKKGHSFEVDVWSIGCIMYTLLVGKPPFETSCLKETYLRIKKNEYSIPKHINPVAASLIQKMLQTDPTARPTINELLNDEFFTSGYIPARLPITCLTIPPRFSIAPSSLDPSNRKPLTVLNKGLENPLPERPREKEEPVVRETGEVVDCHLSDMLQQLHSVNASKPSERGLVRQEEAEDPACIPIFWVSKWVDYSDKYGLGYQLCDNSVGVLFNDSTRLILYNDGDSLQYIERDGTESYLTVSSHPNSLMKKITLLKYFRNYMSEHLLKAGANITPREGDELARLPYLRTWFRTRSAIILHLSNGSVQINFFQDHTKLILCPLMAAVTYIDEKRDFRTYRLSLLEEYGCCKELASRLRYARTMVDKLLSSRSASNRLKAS

Row | Structure (SMILES) | IC50 (PLK1 [1]) [µM] | IC50 (PLK1 [2]; [3]) [µM] | IC50 (PLK1 [2]; [4]) [µM] | IC50 (PLK1 [2]; [5]) [µM]
1 | CCN1C(=O)COc2ccc(Nc3nc(Nc4ccc(N5CCN(C)CC5)c(C)c4)ncc3C)cc21 [compound 191, 4-ethyl-6-(5-methyl-2-(3-methyl-4-(4-methylpiperazin-1-yl)phenylamino)pyrimidin-4-ylamino)-2H-benzo[b][1,4]oxazin-3(4H)-one] | ≥ 10 | 5 to 10 | < 10 | 
2 | CCN1C(=O)COc2ccc(Nc3nc(Nc4ccc(N5CCN(S(C)(=O)=O)CC5)cc4)ncc3C)cc21 [compound 196, 4-ethyl-6-(5-methyl-2-(4-(4-(methyl-sulfonyl)piperazin-1-yl)phenylamino)pyrimidin-4-ylamino)-2H-benzo[b][1,4]oxazin-3(4H)-one] | 5 to 10 | 0.5 to 5 | < 10 | 
3 | Cc1cc(Nc2ncc(C)c(Nc3ccc4c(n3)N(C)C(=O)CO4)n2)ccc1N1CCN(C)CC1 [compound 95, 4-methyl-6-(5-methyl-2-(3-methyl-4-(4-methylpiperazin-1-yl)phenylamino)pyrimidin-4-ylamino)-2H-pyrido[3,2-b][1,4]oxazin-3(4H)-one] | ≥ 10 | 0.5 to 5 | < 10 | 
4 | CCN1C(=O)COc2ccc(Nc3nc(Nc4ccc(N5CCN(C)CC5)cc4)ncc3Cl)cc21 [compound 173, 6-(5-chloro-2-(4-(4-methylpiperazin-1-yl)phenylamino)pyrimidin-4-ylamino)-4-ethyl-2H-benzo[b][1,4]oxazin-3(4H)-one] | 0.5 to 5 | 0.5 to 5 | < 10 | 
5 | CCCN1CCOc2ccc(Nc3nc(Nc4ccc(N5CC6CC5CN6S(C)(=O)=O)c(C)c4)ncc3F)nc21 (centres unmarked) [compound 28, 5-fluoro-N2-(3-methyl-4-(5-(methylsulfonyl)-2,5-diaza-bicyclo[2.2.1]heptan-2-yl)phenyl)-N4-(4-propyl-3,4-dihydro-2H-pyrido[3,2-b][1,4]oxazin-6-yl)pyrimidine-2,4-diamine] | 0.5 to 5 | 0.5 to 5 | < 10 | 
6 | Cc1cnc(Nc2ccc(N3CCN(C)CC3)cc2)nc1Nc1ccc2c(c1)N(CCCF)C(=O)CO2 [compound 188, 4-(3-fluoropropyl)-6-(5-methyl-2-(4-(4-methylpiperazin-1-yl)phenylamino)pyrimidin-4-ylamino)-2H-benzo[b][1,4]oxazin-3(4H)-one] | 0.5 to 5 | 0.5 to 5 | < 10 | 
7 | Cc1cc(Nc2ncc(C)c(Nc3ccc4c(n3)N(CC3CCCCC3)C(=O)CO4)n2)ccc1N1CCN(C)CC1 [compound 119, 4-(cyclohexylmethyl)-6-(5-methyl-2-(3-methyl-4-(4-methylpiperazin-1-yl)phenylamino)pyrimidin-4-ylamino)-2H-pyrido[3,2-b][1,4]oxazin-3(4H)-one] | ≥ 10 | ≥ 10 |  | 
8 | CN1CCN(c2cc(Nc3ncc(F)c(Nc4ccc5c(n4)NCCO5)n3)cc(C3CC3)c2)CC1 [compound 48, N2-(3-cyclopropyl-5-(4-methylpiperazin-1-yl)phenyl)-N4-(3,4-dihydro-2H-pyrido[3,2-b][1,4]oxazin-6-yl)-5-fluoropyrimidine-2,4-diamine] | < 0.5 | < 0.5 | < 10 | < 0.01
9 | CN1CCN(c2cccc(Nc3nccc(Nc4ccc5c(n4)NCCO5)n3)c2)CC1 [compound 21, N4-(3,4-dihydro-2H-pyrido[3,2-b][1,4]oxazin-6-yl)-N2-(3-(4-methylpiperazin-1-yl)phenyl)pyrimidine-2,4-diamine] | ≥ 10 | < 0.5 | < 10 | 
10 | Cc1cnc(Nc2cccc(N3CCN(C)CC3)c2)nc1Nc1ccc2c(n1)N(C1CCCC1)C(=O)CO2 [compound 116, 4-cyclopentyl-6-(5-methyl-2-(3-(4-methylpiperazin-1-yl)phenylamino)pyrimidin-4-ylamino)-2H-pyrido[3,2-b][1,4]oxazin-3(4H)-one] | ≥ 10 | 0.5 to 5 | < 10 | 
11 | CN1CCN(c2cccc(Nc3ncc(F)c(N(CC4CC4)c4ccc5c(n4)NCCO5)n3)c2)CC1 [compound 53, N4-(cyclopropylmethyl)-N4-(3,4-dihydro-2H-pyrido[3,2-b][1,4]oxazin-6-yl)-5-fluoro-N2-(3-(4-methylpiperazin-1-yl)phenyl)pyrimidine-2,4-diamine] | ≥ 10 | 0.5 to 5 | < 10 | 
12 | CC(C)Oc1ccc(N2CCN(C)CC2)cc1Nc1ncc(F)c(Nc2ccc3c(n2)NC(=O)CO3)n1 [compound 30, 6-(5-fluoro-2-(2-isopropoxy-5-(4-methylpiperazin-1-yl)phenylamino)pyrimidin-4-ylamino)-2H-pyrido[3,2-b][1,4]oxazin-3(4H)-one] | < 0.5 | < 0.5 | < 10 | 
13 | Cc1cc(Nc2ncc(C)c(Nc3ccc4c(n3)N(Cc3ccccc3)C(=O)CO4)n2)ccc1N1CCN(C)CC1 [compound 121, 4-benzyl-6-(5-methyl-2-(3-methyl-4-(4-methylpiperazin-1-yl)phenylamino)pyrimidin-4-ylamino)-2H-pyrido[3,2-b][1,4]oxazin-3(4H)-one] | 0.5 to 5 | ≥ 10 |  | 
14 | CN1CCN(c2cccc(Nc3ncc(F)c(Nc4ccc5c(n4)N(CC4CCCCC4)C(=O)CO5)n3)c2)CC1 [compound 110, 4-(cyclohexylmethyl)-6-(5-fluoro-2-(3-(4-methylpiperazin-1-yl)phenylamino)pyrimidin-4-ylamino)-2H-pyrido[3,2-b][1,4]oxazin-3(4H)-one] | ≥ 10 | 5 to 10 | < 10 | 
15 | CC(C)c1ccc(N2CCN(C)CC2)cc1Nc1ncc(F)c(Nc2ccc3c(n2)NCCO3)n1 [compound 27, N4-(3,4-dihydro-2H-pyrido[3,2-b][1,4]oxazin-6-yl)-5-fluoro-N2-(2-isopropyl-5-(4-methylpiperazin-1-yl)phenyl)pyrimidine-2,4-diamine] | 0.5 to 5 | < 0.5 | < 10 | 
16 | CCCN1C(=O)COc2ccc(Nc3nc(Nc4ccc(N5CC6CC5CN6S(C)(=O)=O)c(C)c4)ncc3F)nc21 (centres unmarked) [compound 31, 6-(5-fluoro-2-(3-methyl-4-(5-(methylsulfonyl)-2,5-diazabicyclo[2.2.1]heptan-2-yl)phenylamino)pyrimidin-4-ylamino)-4-propyl-2H-pyrido[3,2-b][1,4]oxazin-3(4H)-one] | 0.5 to 5 | ≥ 10 |  | 
17 | Cc1cc(Nc2ncc(C)c(Nc3ccc4c(n3)N(CC3CC3)C(=O)CO4)n2)ccc1N1CCN(C)CC1 [compound 114, 4-(cyclopropylmethyl)-6-(5-methyl-2-(3-methyl-4-(4-methyl-piperazin-1-yl)phenylamino)pyrimidin-4-ylamino)-2H-pyrido[3,2-b][1,4]oxazin-3(4H)-one] | ≥ 10 | 0.5 to 5 | < 10 | 
18 | CN1CCN(c2cc(Nc3ncc(F)c(Nc4ccc5c(n4)NC(=O)CO5)n3)cc(OC(C)(C)C)c2)CC1 [compound 47, 6-(2-(3-tert-butoxy-5-(4-methylpiperazin-1-yl)phenylamino)-5-fluoro-pyrimidin-4-ylamino)-2H-pyrido[3,2-b][1,4]oxazin-3(4H)-one] | < 0.5 | < 0.5 | < 10 | 
19 | CCCN1C(=O)COc2ccc(Nc3nc(Nc4ccc(N5CCN(C)CC5)c(C)c4)ncc3C)nc21 [compound 97, 6-(5-methyl-2-(3-methyl-4-(4-methylpiperazin-1-yl)phenylamino)pyrimidin-4-ylamino)-4-propyl-2H-pyrido[3,2-b][1,4]oxazin-3(4H)-one] | 0.5 to 5 | < 0.5 | < 10 | 
20 | Cc1cnc(Nc2cccc(N3CCN(C)CC3)c2)nc1Nc1ccc2c(n1)N(Cc1ccc(F)cc1)C(=O)CO2 [compound 133, 4-(4-fluorobenzyl)-6-(5-methyl-2-(3-(4-methylpiperazin-1-yl)phenylamino)pyrimidin-4-ylamino)-2H-pyrido[3,2-b][1,4]oxazin-3(4H)-one] | 0.5 to 5 | < 0.5 | < 10 | 
21 | CN1CCN(c2cccc(Nc3ncc(F)c(Nc4ccc5c(n4)N(Cc4ccccc4)C(=O)CO5)n3)c2)CC1 [compound 120, 4-benzyl-6-(5-fluoro-2-(3-(4-methylpiperazin-1-yl)phenylamino)pyrimidin-4-ylamino)-2H-pyrido[3,2-b][1,4]oxazin-3(4H)-one] | 0.5 to 5 | 0.5 to 5 | < 10 | 
22 | O=C1COc2ccc(Nc3nc(Nc4cccc(N5CCNCC5)c4)ncc3F)cc2N1 [compound 18, 6-(5-fluoro-2-(3-(piperazin-1-yl)phenylamino)pyrimidin-4-ylamino)-2H-benzo[b][1,4]oxazin-3(4H)-one] | 0.5 to 5 | < 0.5 | < 10 | 
23 | CCOc1ccc(N2CCN(C)CC2)cc1Nc1ncc(F)c(Nc2ccc3c(n2)NC(=O)CO3)n1 [compound 49, 6-(2-(2-ethoxy-5-(4-methylpiperazin-1-yl)phenylamino)-5-fluoro-pyrimidin-4-ylamino)-2H-pyrido[3,2-b][1,4]oxazin-3(4H)-one] | < 0.5 | < 0.5 | < 10 | < 0.01
24 | CN1CCN(c2cccc(Nc3ncc(F)c(N(c4ccc5c(n4)NCCO5)C4CCCC4)n3)c2)CC1 [compound 54, N4-cyclopentyl-N4-(3,4-dihydro-2H-pyrido[3,2-b][1,4]oxazin-6-yl)-5-fluoro-N2-(3-(4-methylpiperazin-1-yl)phenyl)pyrimidine-2,4-diamine] | ≥ 10 | 5 to 10 | < 10 | 
